For 56 molecules, logP results are on record in the SangsterLogP compilation.

As for `O=C(O)c1ccccc1Nc1ccccc1`, the logP was 4.36.
The molecule `CC(C)NCC(O)c1ccc(NS(C)(=O)=O)cc1` (stereo unspecified) yielded a logP of 0.24.
With `O=[N+]([O-])c1cccc2c1ccc[n+]2[O-]`, the logP came to 0.49.
To `CCCCCN` belongs 1.49.
To `COc1ccc(NS(=O)(=O)c2ccc(N)cc2)cc1` belongs 1.51; to `OCCN1CCN(CCCN2c3ccccc3Sc3ccc(C(F)(F)F)cc32)CC1`, 4.36.
Consider `CCCCCC(=O)O`, for which the log partition coefficient (logP) stood at 1.92.
Turning to `Cc1cnccn1`, the logP is 0.21.
In the case of `Cc1cccc(C)n1`, the logP came to 1.68.
`CC1=C(C(=O)Nc2ccccc2)SCCO1` came in with a logP of 2.14.
Consider `CCOC(=O)c1cccnc1`, for which the logP is 1.32.
To `N[C@@H](Cc1cnc[nH]1)C(=O)O` belongs -3.32.
`O=C(O)c1ccc([N+](=O)[O-])cc1`: the logP worked out at 1.89.
As for `c1ccc2c(c1)Cc1ccccc1-2`, the logP was 4.18.
The molecule `CCCCCC(C)=O` gave a logP of 1.98.
`OCc1ccc(Cl)cc1` gave a logP of 1.96.
In turn, `CC(=O)c1ccc(Br)cc1` had a logP of 2.43.
To `OC1OC[C@@H](O)[C@@H](O)[C@H]1O` (stereo partly specified) belongs -2.32.
The molecule `COC(=O)C(C#N)=NNc1c(Cl)cc(C(F)(F)F)cc1Cl` returned a logP of 4.36.
For `CN(C)S(=O)(=O)c1ccc(N)cc1`, the logP amounted to 0.67.
To `O=C(O)COc1ccccc1Cl` belongs 1.86; to `CSc1nncc(=O)n1N`, 0.38; to `Nc1nc(N)c2ncn([C@H]3C[C@H](F)[C@@H](CO)O3)c2n1`, 0.05.
Consider `CN1CCN(C2=Nc3cc(Cl)ccc3Nc3ccccc32)CC1`, for which the logP was 3.23.
For the molecule `O=C(O)CONC(=O)Nc1ccccc1`, the logP is 0.26.
In turn, `Clc1ccccc1Cl` yielded a logP of 3.43.
Turning to `CCCn1nnc2ccccc21`, the logP amounted to 2.13.
To `OCCCc1ccccc1` belongs 1.88; to `Cc1ccc2cc(C)c(C)cc2c1`, 4.73.
In turn, `N[C@@H](Cc1ccccc1)C(=O)O` gave a logP of -1.38.
In the case of `CN(C)CCCN1c2ccccc2Sc2ccccc21`, the log partition coefficient (logP) was 4.55.
As to `Oc1ncnc2[nH]cnc12`, the log partition coefficient (logP) is -1.11.
Regarding `CC(=O)CC(C)=O`, the logP was found to be 0.4.
To `Nc1nc(N)c2nc(-c3ccccc3)c(N)nc2n1` belongs 0.98; to `CC1CC(C)C(=O)C(C(O)CC2CC(=O)NC(=O)C2)C1` (stereo unspecified), 0.55.
Next, `O=C(Nc1ccccc1)c1ccccc1O`: 3.27.
Next, `CC(=O)Nc1ccc(F)cc1`: 1.47.
For the molecule `O=C(O)Cc1ccc(I)cc1`, the logP is 2.64.
On to `COc1cccc(C(=O)O)c1`, for which the logP stood at 2.02.
The molecule `Cn1cnc2c1c(=O)[nH]c(=O)n2C` registered a logP of -0.78.
`O=C(O)COC1Cc2ccccc2C1` returned a logP of 2.33.
`NCCc1c[nH]cn1` gave a lipophilicity (logP) of -0.7.
Molecule `c1ccc2c(c1)ccc1ccccc12` registered a logP of 4.46.
`Clc1ccc(-c2ccccc2)cc1` registered a log partition coefficient (logP) of 4.61.
Molecule `COc1ccc(NC(C)=O)cc1` displayed a logP of 1.03.
To `O=[N+]([O-])/C=C/c1cccc(O)c1` belongs 2.07.
Next, `NS(=O)(=O)c1ccc(Br)cc1`: 1.36; `O=C(O)c1cccc(Br)c1`: 2.87.
Next, `CCC(C)C1(CC)C(=O)NC(=O)NC1=O` (stereo unspecified): 1.65; `CC(C)NCC(O)c1ccc([N+](=O)[O-])cc1` (stereo unspecified): 1.28.
`CC(C(=O)O)c1ccc(-c2ccccc2)c(F)c1` (stereo unspecified) yielded a logP of 4.16.
To `Cc1ccc(O)c(C)c1` belongs 2.3; to `O=C1NC(=O)C(c2ccccc2)(c2ccccc2)C(=O)N1`, 1.96; to `Nc1ncnc2c1ncn2[C@H]1C[C@H](O)[C@@H](CO)O1`, -0.55.
Next, `CCc1ccccn1`: 1.69; `Oc1ccc(-c2ccccc2)cc1`: 3.2.

The logP is the decadic logarithm of the partition coefficient of the neutral form, usually between octanol and water. Read a low logP as lower lipophilicity.
